Where “and” joins values, the source holds several entries; their conditions need not be identical. Equal entries are not always repeated.
What was measured:
[1] = species on record: Felis catus; experiment: Percent of arterial blood pressure at sympathetic nerve activity (SND) dose value was determined; assay type: functional
[2] = test system: Felis catus; experiment: Effective dose at which the sympathetic nerve activity (SND) has been reduced to 50% of the pretreatment value in anesthetized cat; assay type: functional
[3] = test system: Felis catus; experiment: Maximum decrease of arterial blood pressure at sympathetic nerve activity (SND) in anesthetized cat has been observed following 1 mg/kg dose; assay type: functional; parameters: scale not given: the % may be the effect or the level left
[4] = test system: Felis catus; experiment: Maximum decrease of sympathetic nerve activity (SND) in anesthetized cat; assay type: functional; parameters: scale not given: the % may be the effect or the level left
[5] = molecular target: T1, D(2) dopamine receptor (Rattus norvegicus, UniProt P61169); experiment: Inhibitory concentration against [3H]raclopride-labeled dopamine receptor D2 in rat striatum; assay type: tissue-based
T1 sequence (P61169 whole entry): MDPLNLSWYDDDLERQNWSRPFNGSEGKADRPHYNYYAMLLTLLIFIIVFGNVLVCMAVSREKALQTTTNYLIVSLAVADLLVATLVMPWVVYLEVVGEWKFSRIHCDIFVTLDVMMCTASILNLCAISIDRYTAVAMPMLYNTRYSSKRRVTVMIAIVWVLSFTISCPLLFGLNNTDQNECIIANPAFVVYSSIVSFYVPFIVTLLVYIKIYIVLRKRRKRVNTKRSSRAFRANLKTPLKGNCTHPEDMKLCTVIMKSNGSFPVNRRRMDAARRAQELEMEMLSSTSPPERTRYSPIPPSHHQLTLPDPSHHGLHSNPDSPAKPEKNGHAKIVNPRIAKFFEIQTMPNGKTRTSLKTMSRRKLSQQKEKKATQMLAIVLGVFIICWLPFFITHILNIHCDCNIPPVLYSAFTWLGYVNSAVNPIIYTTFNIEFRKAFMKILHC

[6] = test system: Mus musculus; experiment: Maximum decrease in temperature when compound is administered subcutaneously; assay type: functional
[7] = test system: Rattus norvegicus; experiment: Effect on the synthesis rates of serotonin in the rat ventral limbic brain region at 12 micro mol/kg.; assay type: functional, Limbic system
[8] = test system: Rattus norvegicus; experiment: Effect on the synthesis rates of dopamine in the rat ventral limbic brain region at 12 micro mol/kg.; assay type: functional, Limbic system
[9] = test system: Rattus norvegicus; experiment: Inhibition of firing rates of serotonergic neurons in the dorsal raphe nucleus by intravenous injection in rats; assay type: functional
[10] = test system: Mus musculus; experiment: Effective dose on hypothermia in mouse when administered subcutaneously; assay type: functional; details: sc
[11] = test system: Mus musculus; experiment: Effective dose on hypothermia in mouse when administered through peroral route; assay type: functional; details: po
[12] = test system: Mus musculus; experiment: Maximum decrease in temperature when compound is administered through peroral route; assay type: functional
[13] = molecular target: T2, D(2) dopamine receptor (Homo sapiens, UniProt P14416); experiment: Intrinsic activity from GTP shift using membranes from CHO cells transfected with mammalian dopamine receptor D2.; assay type: cell membranes
T2 sequence (P14416 whole entry): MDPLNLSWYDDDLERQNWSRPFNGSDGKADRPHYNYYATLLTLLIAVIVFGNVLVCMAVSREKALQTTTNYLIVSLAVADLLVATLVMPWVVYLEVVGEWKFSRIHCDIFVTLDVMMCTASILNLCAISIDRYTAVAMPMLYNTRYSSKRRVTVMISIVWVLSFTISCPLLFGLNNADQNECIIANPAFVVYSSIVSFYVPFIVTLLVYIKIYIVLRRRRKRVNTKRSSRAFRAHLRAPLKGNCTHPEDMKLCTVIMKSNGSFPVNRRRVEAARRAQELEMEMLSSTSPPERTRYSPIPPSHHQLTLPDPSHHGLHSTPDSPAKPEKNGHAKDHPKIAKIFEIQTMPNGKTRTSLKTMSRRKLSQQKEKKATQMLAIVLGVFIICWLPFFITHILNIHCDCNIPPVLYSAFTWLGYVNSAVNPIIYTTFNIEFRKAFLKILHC

[14] = molecular target: T2, D(2) dopamine receptor; experiment: Binding affinity against [3H]U-86,170-labeled dopamine receptor D2 in cloned CHO cells; assay type: cell-based
[15] = test system: Mus musculus; experiment: Antagonism of apomorphine in reserpinized mice when a dose of 3.8 micro mol/kg is administered intraperitoneally; assay type: functional
[16] = test system: Mus musculus; experiment: Antagonism of apomorphine in reserpinized mice when a dose of 38 micro mol/kg is administered intraperitoneally; assay type: functional
[17] = test system: Mus musculus; experiment: Antagonism of apomorphine for 0-10 minutes in reserpinized mice when a dose of 38 micro mol/kg is administered intraperitoneally; assay type: functional
[18] = test system: Mus musculus; experiment: Antagonism of apomorphine effects for 10-20 minutes in reserpinized mice following 0.4 umol/kg i.p.; assay type: functional
[19] = test system: Mus musculus; experiment: Antagonism of apomorphine for 10-20 minutes in reserpinized mice when a dose of 3.8 micro mol/kg is administered intraperitoneally; assay type: functional
[20] = test system: Mus musculus; experiment: Ability to stimulate dopaminergic systems by effect on locomotor activity in reserpinized mice when a dose of 38 micro mol/kg is administered intraperitoneally; assay type: functional
[21] = test system: Mus musculus; experiment: Antagonism of apomorphine effects for 0-10 minutes in reserpinized mice following 0.4 umol/kg i.p.; assay type: functional; parameters: unit not given beside the values
[22] = test system: Mus musculus; experiment: Antagonism of apomorphine for 0-10 minutes in reserpinized mice when a dose of 3.8 micro mol/kg is administered intraperitoneally; assay type: functional
[23] = test system: Mus musculus; experiment: Ability to stimulate dopaminergic systems by effect on locomotor activity in reserpinized mice when a dose of 3.8 micro mol/kg is administered intraperitoneally; assay type: functional
[24] = test system: Mus musculus; experiment: Increase in locomotor activity in reserpinized mice following 0.4 umol/kg i.p.; assay type: functional
[25] = test system: Mus musculus; experiment: Antagonism of apomorphine for 10-20 minutes in reserpinized mice when a dose of 38 micro mol/kg is administered intraperitoneally; assay type: functional
[26] = species on record: Rattus norvegicus; experiment: Effect on the synthesis rates of serotonin (5-HTP accumulation) in the rat ventral limbic brain region at 3.8uMkg; assay type: functional, Limbic system
[27] = test system: Rattus norvegicus; experiment: Inhibition of firing rates of dopaminergic neurons in the substantia nigra pars compacta by intravenous injection in rats.; assay type: functional; details: Rattus norvegicus, Substantia nigra pars compacta, iv; read-out: ED50
[28] = test system: Mus musculus; experiment: Antagonism of apomorphine effects in reserpinized mice following 0.4 umol/kg i.p.; assay type: functional
[29] = species on record: Rattus norvegicus; experiment: Effect on the synthesis rates of serotonin (5-HTP accumulation) in the rat ventral limbic brain region at 3.8uMkg.; assay type: functional, Limbic system
[30] = molecular target: T1, D(2) dopamine receptor; experiment: Binding affinity against [3H]raclopride-labeled dopamine receptor D2 in rat striatum.; assay type: tissue-based
[31] = species on record: Rattus norvegicus; experiment: Effect on the synthesis rates of serotonin (5-HTP accumulation) in the rat ventral limbic brain region at 10.2uMkg.; assay type: functional, Limbic system
[32] = molecular target: T1, D(2) dopamine receptor; experiment: Inhibition concentration against [3H]raclopride-labeled dopamine receptor D2 in rat striatum was estimated by single point experiment. compound was run at 1 uM; assay type: tissue-based
[33] = test system: Mus musculus; experiment: Effective dose on hypothermia in mouse when administered subcutaneously (95% confidence levels); assay type: functional; details: sc
[34] = test system: Rattus norvegicus; experiment: Effect on the synthesis rates of serotonin in the rat ventral limbic brain region 4.0 micro mol/kg. Values are given as percent change from the control; assay type: functional, Limbic system
[35] = test system: Rattus norvegicus; experiment: Effect on the synthesis rates of dopamine in the rat ventral limbic brain region at 4.0 micro mol/kg. Values are given as percent change from the control (*p<0.05); assay type: functional, Limbic system
[36] = molecular target: T1, D(2) dopamine receptor; experiment: Compound was evaluated for the binding affinity against [3H]U-86,170-labeled dopamine receptor D2 in cloned CHO cells; assay type: cell-based
[37] = test system: Rattus norvegicus; experiment: Effect on the synthesis rates of serotonin in the rat ventral limbic brain region at 2.7 micro mol/kg; assay type: functional, Limbic system

Structure (SMILES)	Max temperature decrease [6]	Locomotor activity [15]	Locomotor activity [16]	Locomotor activity [17]	Locomotor activity [18]	Locomotor activity [19]	Locomotor activity [20]	Locomotor activity [21]	Locomotor activity [22]	Locomotor activity [23]	Locomotor activity [24]	Locomotor activity [25]	Locomotor activity [28]	further results
C=CCN1CC[C@H]2c3ccccc3CC[C@H]21 (racemic)	4.4	–	–	–	–	–	–	–	–	–	–	–	–	BP [1]: 76%; ED50 [2]: 0.36 µmol/kg; Control [3]: 60%; Control [4]: 0%; IC50 [5]: > 1000 nM; Control [7]: -46%; Control [8]: 20%; ED50 [9]: 0.12 µmol/kg; ED50 [10]: 22 µmol/kg; ED50 [11]: 69 µmol/kg; Max temperature decrease [12]: 4
C=CCN1CC[C@@H]2c3cccc(O)c3CC[C@H]21 (racemic)	2.1	67	6	5	83	82	53	65	29	4	12	8	109	Intrinsic activity [13]: 44%; Ki [14]: 4.1 nM; Control [26]: 73%; ED50 [27]: 0.97 µmol/kg; ED50 [10]: 113 µmol/kg; Control [29]: -12%
COc1cccc2c1CC[C@@H]1[C@H]2CCN1CC1CC1 (racemic)	–	–	–	–	–	–	–	–	–	–	–	–	–	Ki [30]: > 10000 nM; Control [31]: -15% and -7%
C=CCN1CC[C@@H]2c3ccccc3CC[C@H]21 (racemic)	4.5	–	–	–	–	–	–	–	–	–	–	–	–	Ki [32]: > 1000 nM; ED50 [33]: 45 µmol/kg; Control [34]: -7%; Control [35]: 26%
C=CCN1CC[C@H]2c3c(O)cccc3CC[C@H]21 (racemic)	–	8	11	54	62	68	32	56	78	63	135	69	46	Ki [36]: 153 nM
C=CCN1CCC2c3cccc(O)c3CC[C@H]21 (single isomer, unassigned; (-))	–	62	7	22	105	115	3	110	97	8	73	23	54	Intrinsic activity [13]: 22%; Ki [14]: 108 nM; Ki [30]: 49 nM; Control [26]: 45%; Control [29]: -0.3%
O=C(CCCN1CCC(O)(c2ccc(Cl)cc2)CC1)c1ccc(F)cc1 [HALOPERIDOL]	–	–	–	–	–	–	–	–	–	–	–	–	–	Control [37]: -7%
